Measured values: US7763615B2, “Ecteinascidin analogs for use as antitumour agents” (priority 2001, dated 2010)

Assays:
[1] = tested on: FDC-P1, normal mouse myelogeous stem cells; details: 24 h
physchem [2] = details: pH 7.4, aqueous buffer, Solubility Dulbecco's PBS pH 7.4
[3] = tested on: NRK-52E, normal rat kidney cells; details: 24 h
Procedure: (§2) In order to assess the cytotoxicity of the drugs to normal cells, we used 96 well plates plated at a density of 5000 cells per well (except for the FDC-P1 which were plated at 12,000 cells per well) with normal cell lines (ATCC, Table 1) maintained as per the directions of the ATCC: AML-12, normal mouse liver cells; NRK-52E, normal rat kidney cells; L8, normal rat skeletal muscle cells; FDC-P1, normal mouse myelogeous stem cells; and H9c2 (2-1), normal rat cardiac muscle cells. The cells in each plate were permitted to settle overnight before adding the test drug.
(§3) To each well (100 μl medium) 10 μl of drug in media was added at varying concentrations (1×10-10-0.01 mg/ml final concentration) and further incubated overnight at 37° C. with 5% CO2. After 24 h the following assays were performed. All experiments were repeated at least 3 times and were assayed in duplicate.
(§4) MTS assay (CellTiter 96 aqueous) was performed according to the manufacturer's (Promega) directions (for all cell types). Cell viability (mitochondrial activity) is determined via enzymatic conversion of the formazan substrate.

CYP3A4 = CYP3A4 (Homo sapiens, UniProt P08684); assay: in vitro; details: CYP3A4 (% inhibition)
[4] = s9, 60 min, 1 μM
Procedure: The metabolic stability was determined used human liver S9 homogenate that including both microsomal and cytosolic enzyme activities. The test compound was diluted in methanol (0.625%) and acetonitrile (0.625%) at the concentration 1 μM and incubated in the human liver pool (protein=1 mg/mL) during 60 min at 37° C. Peak areas corresponding to all analytes (metabolic products) were determined by HPLC-MS/MS. Areas were recorded and ratios of peak areas of analytes to that of internal standard for each analyte were determined. The ratio of precursor compound remaining after 60 minutes and the amount remaining at time zero, expressed as percent, are reported as metabolic stability. Higher values mean higher metabolic stability.

H-MEC-1 = assay: Inhibition of cells growth by colorimetric assay (SRB), H-MEC-1; type: cell-based; details: Homo sapiens, HMEC-1, 48 h
Method in brief: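 SRB colorimetric growth assay: 5×10^3 cells/well, 18 h attachment, 48 h continuous compound exposure at 10–10^−8 μg/ml in DMSO/EtOH/PBS. TCA fixation, SRB stain, OD 490 nm; triplicate wells, GI, TGI and LC derived.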

[5] = tested on: H9c2 (2-1), normal rat cardiac muscle cells; details: 24 h
Procedure: as §2, §3, §4

[6] = tested on: L8, normal rat skeletal muscle cells; details: 24 h
(HEPG2) = details: human, 24 h, 30 μM
[7] = tested on: AML-12, normal mouse liver cells; details: 24 h
Procedure: as §2, §3, §4

SK-OV3 = assay: Inhibition of cells growth by colorimetric assay (SRB), SK-OV3; type: cell-based
Source text: The finality of these assays is to interrupt the growth of a “in vitro” tumor cell culture by means of a continued exhibition of the cells to the sample to be testing.
A colorimetric type of assay, using sulphorhodamine B (SRB) reaction has been adapted for a quantitative measurement of cell growth and viability [following the technique described by Philip Skehan, et al. (1990), New colorimetric cytotoxicity assay for anticancer drug screening, J. Natl. Cancer Inst., 82:1107-1112]
This form of the assay employs 96 well cell culture microplates of 9 mm diameter (Faircloth, 1988; Mosmann, 1983). Most of the cell lines are obtained from American Type Culture Collection (ATCC) derived from different human cancer types.
Cells are maintained in RPMI 1640 10% FBS, supplemented with 0.1 g/l penicillin and 0.1 g/l streptomycin sulphate and then incubated at 37° C., 5% CO2 and 98% humidity. For the experiments, cells were harvested from subconfluent cultures using trypsin and resuspended in fresh medium before plating.
Cells are seeded in 96 well microtiter plates, at 5×10^3 cells per well in aliquots of 195 μl medium, and they are allowed to attach to the plate surface by growing in drug free medium for 18 hours. Afterward, samples are added in aliquots of 5 μl in a ranging from 10 to 10^−8 μg/ml, dissolved in DMSO/EtOH/PBS (0.5:0.5:99). After 48 hours exposure, the antitumor effect are measured by the SRB methodology: cells are fixed by adding 50 μl of cold 50% (wt/vol) trichloroacetic acid (TCA) and incubating for 60 minutes at 4° C. Plates are washed with deionized water and dried. One hundred μl of SRB solution (0.4% wt/vol in 1% acetic acid) is added to each microtiter well and incubated for 10 minutes at room temperature. Unbound SRB is removed by washing with 1% acetic acid. Plates are air dried and bound stain is solubilized with Tris buffer. Optical densities are read on a automated spectrophotometric plate reader at a single wavelength of 490 nm.
The values for mean+/− SD of data from triplicate wells are calculated. Some parameters for cellular responses can be calculated: GI=growth inhibition, TGI=total growth inhibition (cytostatic effect) and LC=cell killing (cytotoxic effect).

HT29 = assay: cells; type: cell-based; details: Homo sapiens, HT-29, 48 h
Method in brief: (§1)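 Human tumour cells seeded at 5×10^3 per well in RPMI 1640 10% FBS, attached 18 h, then exposed 48 h to samples from 10 to 10^−8 μg/ml in DMSO/EtOH/PBS. Growth measured by SRB staining after TCA fixation, OD 490 nm, triplicate wells; GI, TGI and LC derived.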

SK-BR3 = assay: cells; type: cell-based; details: Homo sapiens, SK-BR-3, 48 h
Method in brief: as §1

IGROV = assay: cells; type: cell-based; details: Homo sapiens, 48 h
Method in brief: as §1

K562 = assay: cells; type: cell-based; details: Homo sapiens, K562, 48 h
Method in brief: as §1

DU145 = assay: cells; type: cell-based; details: Homo sapiens, DU-145, 48 h
Method in brief: as §1

LOVO = assay: cells; type: cell-based; details: Homo sapiens, LoVo, 48 h
Method in brief: as §1

IGROV-ET = assay: cells; type: cell-based; details: Homo sapiens, 48 h
Method in brief: as §1

LOVO-DOX = assay: cells; type: cell-based; details: Homo sapiens, 48 h
Method in brief: as §1

MEL-28 = assay: cells; type: cell-based; details: Homo sapiens, SK-MEL-28, 48 h
Method in brief: as §1

LNCAP = assay: cells; type: cell-based; details: Homo sapiens, LNCaP, 48 h
Method in brief: as §1

PANC-1 = assay: cells; type: cell-based; details: Homo sapiens, PANC-1, 48 h
Method in brief: as §1

A549 = assay: cells; type: cell-based; details: Homo sapiens, A549, 48 h
Method in brief: as §1

physchem [8] = details: pH 7.4, log D n-Octanol-Dulbecco's PBS pH 7.4
[9] = H-MEC-1, 48 hours exposure, SRB
[10] = IGROV-ET, 48 hours exposure, SRB
[11] = LOVO-DOX, 48 hours exposure, SRB

CYP3A4, sequence (P08684 whole entry): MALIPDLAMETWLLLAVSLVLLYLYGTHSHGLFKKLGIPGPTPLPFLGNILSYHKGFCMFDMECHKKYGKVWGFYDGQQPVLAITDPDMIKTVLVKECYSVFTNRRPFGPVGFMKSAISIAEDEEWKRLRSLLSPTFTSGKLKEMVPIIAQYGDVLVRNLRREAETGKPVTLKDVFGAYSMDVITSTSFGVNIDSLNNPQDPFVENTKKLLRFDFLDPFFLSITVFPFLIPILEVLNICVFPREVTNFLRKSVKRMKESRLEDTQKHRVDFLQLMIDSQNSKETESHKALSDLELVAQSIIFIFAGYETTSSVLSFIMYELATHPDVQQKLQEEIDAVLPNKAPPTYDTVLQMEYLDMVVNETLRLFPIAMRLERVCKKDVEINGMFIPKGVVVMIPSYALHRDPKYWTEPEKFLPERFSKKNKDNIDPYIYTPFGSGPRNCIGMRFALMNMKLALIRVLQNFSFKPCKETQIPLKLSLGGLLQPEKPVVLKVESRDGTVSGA

Q: For COc1c(C)cc2c(c1O)[C@@H]1C3[C@@H]4SC[C@]5(NCCc6c5[nH]c5ccc(F)cc65)C(=O)COC[C@@H](c5c6c(c(C)c(OC(C)=O)c54)OCO6)N3[C@@H](O)[C@H](C2)N1C (stereo partly shown) [Compound 35], which Myelo [1] is on record?
A: The Myelo was 4.08E−08.

Q: What about the solubility (physchem [2]) of the same molecule?
A: The solubility was less than 1 µM.

Q: And the Kidney [3]?
A: The Kidney was 3.42E−08.

Q: What about the inhibition at 30 min, 10 µM (CYP3A4) of the same molecule?
A: The inhibition at 30 min, 10 µM was 24%.

Q: And the “Human Liver S9 Metabolic Stability (% remaining)” value [4]?
A: Its value is 4 % remaining.

Q: And the GI50 (H-MEC-1; [9])?
A: The GI50 was 2.6 nM.

Q: What about the IC (TGI) (H-MEC-1; [9]) of the same molecule?
A: Its IC (TGI) is 30.4 nM.

Q: And the CC50 (H-MEC-1; read-out: LC50, H-MEC-1, 48 hours exposure, SRB)?
A: The CC50 was 12900 nM.

Q: What about the Heart [5] of the same molecule?
A: The Heart was 1.93E−08.

Q: And the Skeletal [6]?
A: The Skeletal was 3.07E−08.

Q: And the “Cell Viability (% inhibition)” value ((HEPG2))?
A: The value was 23 % inhibition.

Q: What about the Liver [7] of the same molecule?
A: Its Liver is 4.88E−08.

Q: And the GI50 (SK-OV3; Homo sapiens, SK-OV-3, 48 h, SK-OV3, 48 hours exposure, SRB)?
A: The GI50 was 4.37 nM.

Q: And the CC50 (SK-OV3; Homo sapiens, SK-OV-3, 48 h, read-out: LC50, SK-OV3, 48 hours exposure, SRB)?
A: The CC50 was 12900 nM.

Q: What about the TGI (SK-OV3; SK-OV3, 48 hours exposure, SRB) of the same molecule?
A: Its TGI is 1.46E−08 Molar.

Q: And the GI50 (HT29; HT29, 48 hours exposure, SRB)?
A: Its GI50 is 4.19 nM.

Q: What about the IC (TGI) (HT29; HT29, 48 hours exposure, SRB) of the same molecule?
A: The IC (TGI) was 13.2 nM.

Q: What about the CC50 (HT29; read-out: LC50, HT29, 48 hours exposure, SRB) of the same molecule?
A: Its CC50 is 12900 nM.

Q: And the GI50 (SK-BR3; SK-BR3, 48 hours exposure, SRB)?
A: The GI50 was 2.21 nM.

Q: And the IC (TGI) (SK-BR3; SK-BR3, 48 hours exposure, SRB)?
A: Its IC (TGI) is 6.55 nM.

Q: What about the CC50 (SK-BR3; read-out: LC50, SK-BR3, 48 hours exposure, SRB) of the same molecule?
A: Its CC50 is 1090 nM.

Q: And the GI50 (IGROV; 48 hours exposure, SRB)?
A: Its GI50 is 3.45 nM.

Q: And the IC (TGI) (IGROV; 48 hours exposure, SRB)?
A: The IC (TGI) was 7.72 nM.

Q: What about the CC50 (IGROV; read-out: LC50, IGROV, 48 hours exposure, SRB) of the same molecule?
A: Its CC50 is 3380 nM.

Q: And the GI50 (K562; K562, 48 hours exposure, SRB)?
A: Its GI50 is 1.14 nM.

Q: And the IC (TGI) (K562; K562, 48 hours exposure, SRB)?
A: The IC (TGI) was 2.67 nM.

Q: And the CC50 (K562; read-out: LC50, K562, 48 hours exposure, SRB)?
A: Its CC50 is 10.2 nM.

Q: And the GI50 (DU145; DU145, 48 hours exposure, SRB)?
A: Its GI50 is 3.83 nM.

Q: What about the IC (TGI) (DU145; DU145, 48 hours exposure, SRB) of the same molecule?
A: Its IC (TGI) is 12 nM.

Q: And the CC50 (DU145; read-out: LC50, DU145, 48 hours exposure, SRB)?
A: Its CC50 is 12900 nM.

Q: What about the GI50 (LOVO; 48 hours exposure, SRB) of the same molecule?
A: Its GI50 is 2.26 nM.

Q: And the IC (TGI) (LOVO; 48 hours exposure, SRB)?
A: The IC (TGI) was 5.68 nM.

Q: And the CC50 (LOVO; read-out: LC50, LOVO, 48 hours exposure, SRB)?
A: The CC50 was 12.9 nM.

Q: And the GI50 (IGROV-ET; [10])?
A: Its GI50 is 5.53 nM.

Q: What about the IC (TGI) (IGROV-ET; [10]) of the same molecule?
A: The IC (TGI) was 23.5 nM.

Q: What about the CC50 (IGROV-ET; read-out: LC50, IGROV-ET, 48 hours exposure, SRB) of the same molecule?
A: Its CC50 is 12900 nM.

Q: What about the GI50 (LOVO-DOX; [11]) of the same molecule?
A: Its GI50 is 26.8 nM.

Q: What about the IC (TGI) (LOVO-DOX; [11]) of the same molecule?
A: The IC (TGI) was 124 nM.

Q: What about the CC50 (LOVO-DOX; read-out: LC50, LOVO-DOX, 48 hours exposure, SRB) of the same molecule?
A: The CC50 was 12900 nM.

Q: What about the GI50 (MEL-28; MEL-28, 48 hours exposure, SRB) of the same molecule?
A: The GI50 was 2.78 nM.

Q: What about the IC (TGI) (MEL-28; MEL-28, 48 hours exposure, SRB) of the same molecule?
A: The IC (TGI) was 7.16 nM.

Q: And the CC50 (MEL-28; read-out: LC50, MEL-28, 48 hours exposure, SRB)?
A: The CC50 was 47 nM.

Q: What about the GI50 (LNCAP; 48 hours exposure, SRB) of the same molecule?
A: Its GI50 is 0.816 nM.

Q: What about the IC (TGI) (LNCAP; 48 hours exposure, SRB) of the same molecule?
A: The IC (TGI) was 2.5 nM.

Q: What about the CC50 (LNCAP; read-out: LC50, LNCAP, 48 hours exposure, SRB) of the same molecule?
A: The CC50 was 7.48 nM.

Q: And the GI50 (PANC-1; PANC-1, 48 hours exposure, SRB)?
A: Its GI50 is 4.52 nM.

Q: What about the IC (TGI) (PANC-1; PANC-1, 48 hours exposure, SRB) of the same molecule?
A: The IC (TGI) was 42.1 nM.

Q: What about the CC50 (PANC-1; read-out: LC50, PANC-1, 48 hours exposure, SRB) of the same molecule?
A: Its CC50 is 12900 nM.

Q: And the GI50 (A549; A549, 48 hours exposure, SRB, read-out: GI50)?
A: Its GI50 is 3.03 nM.

Q: And the IC (TGI) (A549; A549, 48 hours exposure, SRB, read-out: TGI)?
A: Its IC (TGI) is 7.65 nM.

Q: What about the CC50 (A549; read-out: LC50, A549, 48 hours exposure, SRB) of the same molecule?
A: Its CC50 is 4090 nM.

Q: What about the logD at 60 min (physchem [8]) of the same molecule?
A: Its logD at 60 min is greater than 5.
